Test results published in patent US10047098B2, “C5-C6-oxacyclic fused iminopyrimidinone compounds as bace inhibitors, compositions, and their use” (Merck Sharp & Dohme Corp., priority 2014, dated 2018).

What was measured:
[1] = target: Recombinant human soluble BACE1 catalytic domain (Homo sapiens (Human), UniProt P56817); assay: BACE1 HTRF FRET Assay; assay type: biochemical; details: Ki calculated from IC50 using the Cheng-Prusoff equation; QSY7-APPswe-Eu substrate, pH 5.0; read-out: BACE-1 Ki
Recombinant human soluble BACE1 catalytic domain, sequence (P56817 75-416): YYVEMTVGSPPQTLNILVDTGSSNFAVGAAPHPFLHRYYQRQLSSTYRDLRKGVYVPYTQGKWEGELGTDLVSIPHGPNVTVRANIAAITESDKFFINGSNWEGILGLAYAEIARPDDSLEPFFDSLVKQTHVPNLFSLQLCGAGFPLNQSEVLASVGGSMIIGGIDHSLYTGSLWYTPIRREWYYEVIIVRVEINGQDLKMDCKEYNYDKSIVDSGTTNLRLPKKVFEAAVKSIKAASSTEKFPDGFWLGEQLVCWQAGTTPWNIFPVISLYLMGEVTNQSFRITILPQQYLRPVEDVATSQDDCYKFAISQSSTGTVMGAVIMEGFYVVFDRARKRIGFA
Procedure, shortened: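 Purified BACE1 catalytic domain (3 nM as added) is preincubated with inhibitor for 30 min at 30 °C in 20 mM Na-acetate pH 5.0, 10% glycerol, 0.1% Brij-35, 7.5% DMSO. QSY7-APP^swe-Eu substrate (200 nM final) is then cleaved for 1.5 h at 30 °C and read as time-resolved 620 nm fluorescence. IC50s come from nonlinear regression, and Ki from Cheng-Prusoff using substrate Km 8 μM.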

[2] = target: purified human autoBACE-2 (Homo sapiens (Human), UniProt Q9Y5Z0); assay: BACE-2 Assay (BACE-HTRF assay); assay type: biochemical; details: Ki calculated from IC50 using the Cheng-Prusoff equation; QSY7-EISEVNLDAEFC-Eu-amide substrate, pH 5.0
purified human autoBACE-2, sequence (Q9Y5Z0 63-473 limits assumed): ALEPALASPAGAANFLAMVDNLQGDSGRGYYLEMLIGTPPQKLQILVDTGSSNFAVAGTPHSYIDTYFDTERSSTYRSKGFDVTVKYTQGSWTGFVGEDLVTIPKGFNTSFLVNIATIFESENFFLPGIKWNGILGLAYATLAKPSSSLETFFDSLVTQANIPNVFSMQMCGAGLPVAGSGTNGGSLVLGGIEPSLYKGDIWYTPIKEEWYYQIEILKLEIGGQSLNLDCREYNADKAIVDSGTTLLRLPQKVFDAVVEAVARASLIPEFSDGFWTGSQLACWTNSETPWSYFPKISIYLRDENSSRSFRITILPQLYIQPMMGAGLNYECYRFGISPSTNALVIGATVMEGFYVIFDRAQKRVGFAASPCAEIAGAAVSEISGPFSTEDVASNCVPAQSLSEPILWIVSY
Procedure, shortened: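 Endpoint proteolysis of a QSY7/europium FRET peptide by purified human autoBACE-2, 5% DMSO final, read by time-resolved fluorescence at 620 nm after 320 nm excitation.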

Row | Ki [1] [nM] | Ki [2] [nM] | SMILES
1 | 157 | 71.3 | C[C@H]1C[C@H]2C(=O)N(C)C(=N)N[C@@]2(c2cc(Oc3ccc(F)cn3)ccc2F)CO1 [Example 68, (4aR,6S,8aS)-8a-(2-fluoro-5-((5-fluoropyridin-2-yl)oxy)phenyl)-2-imino-3,6-dimethylhexahydro-1H-pyrano[3,4-d]pyrimidin-4(4aH)-one]
2 | 11 | 6.78 | C[C@H]1C[C@H]2C(=O)N(C)C(=N)N[C@@]2(c2cc(Oc3ncncc3F)ccc2F)CO1 [Example 69, (4aR,6S,8aS)-8a-(2-fluoro-5-((5-fluoropyrimidin-4-yl)oxy)phenyl)-2-imino-3,6-dimethylhexahydro-1H-pyrano[3,4-d]pyrimidin-4(4aH)-one]
3 | 402 | 235 | Cc1nccnc1Oc1ccc(F)c([C@]23CO[C@@H](C)C[C@H]2C(=O)N(C)C(=N)N3)c1 [Example 70, (4aR,6S,8aS)-8a-(2-fluoro-5-((3-methylpyrazin-2-yl)oxy)phenyl)-2-imino-3,6-dimethylhexahydro-1H-pyrano[3,4-d]pyrimidin-4(4aH)-one]
4 | 39.9 | 15 | COc1ccnc(Oc2ccc(F)c([C@]34CO[C@@H](C)C[C@H]3C(=O)N(C)C(=N)N4)c2)c1 [Example 71, (4aR,6S,8aS)-8a-(2-fluoro-5-((4-methoxypyridin-2-yl)oxy)phenyl)-2-imino-3,6-dimethylhexahydro-1H-pyrano[3,4-d]pyrimidin-4(4aH)-one]
5 | 37.6 | 9.67 | C[C@H]1C[C@H]2C(=O)N(C)C(=N)N[C@@]2(c2cc(Oc3ncccc3Cl)ccc2F)CO1 [Example 72, (4aR,6S,8aS)-8a-(5-((3-chloropyridin-2-yl)oxy)-2-fluorophenyl)-2-imino-3,6-dimethylhexahydro-1H-pyrano[3,4-d]pyrimidin-4(4aH)-one]
6 | 295 | 32.3 | Cc1cccnc1Oc1ccc(F)c([C@]23CO[C@@H](C)C[C@H]2C(=O)N(C)C(=N)N3)c1 [Example 73, (4aR,6S,8aS)-8a-(2-fluoro-5-((3-methylpyridin-2-yl)oxy)phenyl)-2-imino-3,6-dimethylhexahydro-lH-pyrano[3,4-d]pyrimidin-4(4aH)-one]
7 | 44.3 | 31.5 | C[C@H]1C[C@H]2C(=O)N(C)C(=N)N[C@@]2(c2cc(Oc3ccncc3F)ccc2F)CO1 [Example 74, (4aR,6S,8aS)-8a-(2-fluoro-5-((3-fluoropyridin-4-yl)oxy)phenyl)-2-imino-3,6-dimethylhexahydro-1H-pyrano[3,4-d]pyrimidin-4(4aH)-one]
8 | 31.7 | 13.4 | C[C@H]1C[C@H]2C(=O)N(C)C(=N)N[C@@]2(c2cc(Oc3ccccn3)ccc2F)CO1 [Example 76, (4aR,6S,8aS)-8a-(2-fluoro-5-(pyridin-2-yloxy)phenyl)-2-imino-3,6-dimethylhexahydro-1H-pyrano[3,4-d]pyrimidin-4(4aH)-one]
9 | 1450 | 242 | C[C@H]1C[C@H]2C(=O)N(C)C(=N)N[C@@]2(c2cc(Oc3cc4ccccc4cn3)ccc2F)CO1 [Example 77, (4aR,6S,8aS)-8a-(2-fluoro-5-(isoquinolin-3-yloxy)phenyl)-2-imino-3,6-dimethylhexahydro-1H-pyrano[3,4-d]pyrimidin-4(4aH)-one]
10 | 20 | 32.9 | C[C@H]1C[C@H]2C(=O)N(C)C(=N)N[C@@]2(c2cc(Oc3cncc(F)c3)ccc2F)CO1 [Example 78, (4aR,6S,8aS)-8a-(2-fluoro-5-((5-fluoropyridin-3-yl)oxy)phenyl)-2-imino-3,6-dimethylhexahydro-1H-pyrano[3,4-d]pyrimidin-4(4aH)-one]
11 | 43.5 | 41.3 | C[C@H]1C[C@H]2C(=O)N(C)C(=N)N[C@@]2(c2cc(Oc3ncc(F)cc3F)ccc2F)CO1 [Example 79, (4aR,6S,8aS)-8a-(5-((3,5-difluoropyridin-2-yl)oxy)-2-fluorophenyl)-2-imino-3,6-dimethylhexahydro-1H-pyrano[3,4-d]pyrimidin-4(4aH)-one]
12 | 8.5 | 22.3 | C[C@H]1C[C@H]2C(=O)N(C)C(=N)N[C@@]2(c2cc(Oc3cc(F)cnc3F)ccc2F)CO1 [Example 80, (4aR,6S,8aS)-8a-(5-((2,5-difluoropyridin-3-yl)oxy)-2-fluorophenyl)-2-imino-3,6-dimethylhexahydro-1H-pyrano[3,4-d]pyrimidin-4(4aH)-one]
13 | 26.8 | 20.7 | C[C@H]1C[C@H]2C(=O)N(C)C(=N)N[C@@]2(c2cc(Oc3cccnc3)ccc2F)CO1 [Example 81, (4aR,6S,8aS)-8a-(2-fluoro-5-(pyridin-3-yloxy)phenyl)-2-imino-3,6-dimethylhexahydro-1H-pyrano[3,4-d]pyrimidin-4(4aH)-one]
14 | 45.7 | 23.5 | C[C@H]1C[C@H]2C(=O)N(C)C(=N)N[C@@]2(c2cc(Oc3cc(F)ccc3F)ccc2F)CO1 [Example 82, (4aR,6S,8aS)-8a-(5-(2,5-difluorophenoxy)-2-fluorophenyl)-2-imino-3,6-dimethylhexahydro-1H-pyrano[3,4-d]pyrimidin-4(4aH)-one]
15 | 60.5 | 24.2 | CN1C(=N)N[C@@]2(c3cc(Br)ccc3F)CO[C@@H](c3ccc(F)cc3)C[C@H]2C1=O [Example 83, (4aR,6R,8aS)-8a-(5-bromo-2-fluorophenyl)-6-(4-fluorophenyl)-2-imino-3-methylhexahydro-1H-pyrano[3,4-d]pyrimidin-4(4aH)-one]
16 | 70 | 17.2 | CN1C(=N)N[C@@]2(c3cc(O)ccc3F)CO[C@@H](c3ccc(F)cc3)C[C@H]2C1=O [Example 84, (4aR,6R,8aS)-8a-(2-fluoro-5-hydroxyphenyl)-6-(4-fluorophenyl)-2-imino-3-methylhexahydro-1H-pyrano[3,4-d]pyrimidin-4(4aH)-one]
17 | 3.2 | 0.76 | CN1C(=N)N[C@@]2(c3cc(OCC4CC4)ccc3F)CO[C@@H](c3ccc(F)cc3)C[C@H]2C1=O [Example 85, (4aR,6R,8aS)-8a-(5-(cyclopropylmethoxy)-2-fluorophenyl)-6-(4-fluorophenyl)-2-imino-3-methylhexahydro-1H-pyrano[3,4-d]pyrimidin-4(4aH)-one]
18 | 1200 | 298 | CN1C(=N)N[C@@]2(c3cc(Br)ccc3F)COCC[C@H]2C1=O [Example 86, (4aR,8aS)-8a-(5-bromo-2-fluorophenyl)-2-imino-3-methylhexahydro-IH-pyrano[3,4-d]pyrimidin-4(4aH)-one]
19 | 27 | 13.5 | CN1C(=N)N[C@@]2(c3cc(Oc4ncccc4F)ccc3F)COCC[C@H]2C1=O [Example 87, (4aR,8aS)-8a-(2-fluoro-5-((3-fluoropyridin-2-yl)oxy)phenyl)-2-imino-3-methylhexahydro-1H-pyrano[3,4-d]pyrimidin-4(4aH)-one]
20 | 44 | 5.96 | CN1C(=N)N[C@@]2(c3cc(OCC4CC4)ccc3F)COCC[C@H]2C1=O [Example 88, (4aR,8aS)-8a-(5-(cyclopropylmethoxy)-2-fluorophenyl)-2-imino-3-methylhexahydro-1H-pyrano[3,4-d]pyrimidin-4(4aH)-one]
21 | 910 | 304 | COC[C@H]1C[C@H]2C(=O)N(C)C(=N)N[C@@]2(c2cc(Br)ccc2F)CO1 [Example 89, (4aR,6R,8aS)-8a-(5-bromo-2-fluorophenyl)-2-imino-6-(methoxymethyl)-3-methylhexahydro-1H-pyrano[3,4-d]pyrimidin-4(4aH)-one]
22 | 21 | 8.84 | COC[C@H]1C[C@H]2C(=O)N(C)C(=N)N[C@@]2(c2cc(OCC3CC3)ccc2F)CO1 [Example 90, (4aR,6R,8aS)-8a-(5-(cyclopropylmethoxy)-2-fluorophenyl)-2-imino-6-(methoxymethyl)-3-methylhexahydro-1H-pyrano[3,4-d]pyrimidin-4(4aH)-one]
23 | 468 | 155 | COc1cc([C@]23CO[C@@H](C)C[C@H]2C(=O)N(C)C(=N)N3)c(F)cn1 [Example 91, (4aR,6S,8aS)-8a-(5-fluoro-2-methoxypyridin-4-yl)-2-imino-3,6-dimethylhexahydro-1H-pyrano[3,4-d]pyrimidin-4(4aH)-one]
24 | 11.1 | 2.19 | C[C@H]1C[C@H]2C(=O)N(C)C(=N)N[C@@]2(c2cc(OCC3CC3)ncc2F)CO1 [Example 92, (4aR,6S,8aS)-8a-(2-(cyclopropylmethoxy)-5-fluoropyridin-4-yl)-2-imino-3,6-dimethylhexahydro-1H-pyrano[3,4-d]pyrimidin-4(4aH)-one]
25 | 16.1 | 4.46 | C=CCCOc1cc([C@]23CO[C@@H](C)C[C@H]2C(=O)N(C)C(=N)N3)c(F)cn1 [Example 93, (4aR,6S,8aS)-8a-(2-(but-3-en-1-yloxy)-5-fluoropyridin-4-yl)-2-imino-3,6-dimethylhexahydro-1H-pyrano[3,4-d]pyrimidin-4(4aH)-one]
26 | 4180 | 1590 | C[C@H]1C[C@H]2C(=O)N(C)C(=N)N[C@@]2(c2cc(=O)n(CC3CC3)cc2F)CO1 [Example 94, (4aR,6S,8aS)-8a-(1-(cyclopropylmethyl)-5-fluoro-2-oxo-1,2-dihydropyridin-4-yl)-2-imino-3,6-dimethylhexahydro-1H-pyrano[3,4-d]pyrimidin-4(4aH)-one]
27 | 8400 | 1590 | C=CCCn1cc(F)c([C@]23CO[C@@H](C)C[C@H]2C(=O)N(C)C(=N)N3)cc1=O [Example 95, (4aR,6S,8aS)-8a-(1-(but-3-en-1-yl)-5-fluoro-2-oxo-1,2-dihydropyridin-4-yl)-2-imino-3,6-dimethylhexahydro-1H-pyrano[3,4-d]pyrimidin-4(4aH)-one]
